The record followed here is patent publication US20230382949A1 (HEPTARES THERAPEUTICS LIMITED, priority 2020, published 2023).

pEC50: −log10 of the molar value. Starred links: 1 amine or outer side, 2 acyl side, 3 side chain; linkers in the order of their positions; H or OH if unused. Non-standard residues stand in square brackets, D forms with d. Residues, ends and D or L forms follow the SMILES beside them. *: point of attachment. Ala(piperidin-4-yl) = O=C([C@H](CC1CCN([*:3])CC1)N[*:1])[*:2]; Malonyl(2,2-Me2,histaminyl) = CC(C)(C(=O)NCCc1cnc[nH]1)C(=O)*; dBip = N[C@H](Cc1ccc(-c2ccccc2)cc1)C(=O)O; Oic = O=C(O)[C@@H]1C[C@@H]2CCCC[C@@H]2N1; Phe(4-Br) = N[C@@H](Cc1ccc(Br)cc1)C(=O)O; X4 = CC(C)(C(=O)NCCCc1cnc[nH]1)C(=O)*; hArg = N=C(N)NCCCC[C@H](N)C(=O)O; Pip = O=C(O)[C@@H]1CCCCN1; Nle = CCCC[C@H](N)C(=O)O; Aib = CC(C)(N)C(=O)O; Sar = CNCC(=O)O

In assay [1] the target is T1, human Apelin receptor (Homo sapiens, UniProt P35414).
T1 construct: host or cells: CHO-K1 cells
Description: β-arrestin accumulation assay, functional agonism of human Apelin receptors. In kind it is cell-based. How it is done: β-arrestin assay. […] After 16 h incubation at 37° C. media was removed and cells were incubated at 37° C. for 90 min in serum free media containing increasing concentrations of test agonist. The assay reaction was stopped by adding detection reagent (DiscoveRx) and incubation for 60 min in the dark. Levels of receptor activation were then measured on a PheraStar fluorescence plate reader (BMG LabTech) and EC50 values were determined using Graphpad Prism.
T1 sequence (P32121 whole entry partner, one chain of several): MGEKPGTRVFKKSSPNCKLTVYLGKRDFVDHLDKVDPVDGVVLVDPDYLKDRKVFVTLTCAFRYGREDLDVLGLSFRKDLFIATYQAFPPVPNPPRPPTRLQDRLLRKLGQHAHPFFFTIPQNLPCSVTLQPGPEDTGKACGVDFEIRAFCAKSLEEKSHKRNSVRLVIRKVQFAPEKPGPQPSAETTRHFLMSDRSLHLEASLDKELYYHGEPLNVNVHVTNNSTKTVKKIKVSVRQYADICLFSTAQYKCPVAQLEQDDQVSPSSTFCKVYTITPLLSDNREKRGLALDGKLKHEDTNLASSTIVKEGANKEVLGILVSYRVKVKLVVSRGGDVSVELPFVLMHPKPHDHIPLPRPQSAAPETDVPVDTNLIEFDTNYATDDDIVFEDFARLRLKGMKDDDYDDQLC

Assay [2] deals with T2, human Apelin receptor (Homo sapiens, UniProt P35414).
T2 sequence (P35414 1-380): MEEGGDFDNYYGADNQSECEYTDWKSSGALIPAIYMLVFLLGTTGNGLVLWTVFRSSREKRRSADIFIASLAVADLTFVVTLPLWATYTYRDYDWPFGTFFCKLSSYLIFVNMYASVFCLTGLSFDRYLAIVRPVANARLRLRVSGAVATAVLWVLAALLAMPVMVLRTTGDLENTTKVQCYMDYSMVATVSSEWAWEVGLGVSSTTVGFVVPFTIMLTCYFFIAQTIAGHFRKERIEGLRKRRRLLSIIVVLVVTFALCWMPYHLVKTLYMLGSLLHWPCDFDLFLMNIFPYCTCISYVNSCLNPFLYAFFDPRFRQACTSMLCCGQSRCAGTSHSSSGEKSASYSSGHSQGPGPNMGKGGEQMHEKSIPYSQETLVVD
As to the kind of experiment: cAMP accumulation assay (HTRF), functional agonism of human Apelin receptors. In kind it is cell-based. Particulars: CHO cells stably expressing the human Apelin receptor, 3 uM forskolin; for Emax: CHO, Human Apelin agonist cAMP assay; for pEC50: pEC50, Human Apelin agonist cAMP assay. An excerpt: cAMP functional assay. cAMP production was quantified using the Homogeneous Time-Resolved Fluorescence (HTRF) cAMP dynamic-2 assay (Cisbio, France).

As a reminder, the pEC50 is −log10 of the EC50, conventionally taken in molar units. Low readings indicate a high EC50, high ones a low EC50. As usually defined, the Emax is the greatest response seen or fitted, relative to the assay's reference. Turning to `CC(C)C[C@H](NC(=O)[C@@H](CCCNC(=N)N)NC(=O)[C@@H]1CCCN1C(=O)[C@H](CCCCNC(=N)N)NC(=O)[C@H](CCC(N)=O)NC(=O)C(C)(C)C(=O)NCCc1cnc[nH]1)C(=O)NC(C)(C)C(=O)N[C@@H](Cc1c[nH]cn1)C(=O)N[C@@H](CC1CCNCC1)C(=O)N(C)CC(=O)N1[C@H](C(=O)N[C@@H](Cc2ccc(Br)cc2)C(=O)N2CCC[C@H]2C(=O)N[C@H](Cc2ccc(-c3ccccc3)cc2)C(=O)O)C[C@@H]2CCCC[C@@H]21` [Example 52] ({Malonyl(2,2-Me2,histaminyl)}-Q[hArg]P[dR]L[Aib]H[Ala(piperidin-4-yl)][Sar][Oic][Phe(4-Br)]P[dBip]-OH), at human Apelin receptor [1], the negative-log EC50 (pEC50) is below 5.00. Also, at human Apelin receptor [2], the Emax was found to be 20.4% and the negative logarithm of the EC50 (pEC50) is 7.20.
As to `CC(C)C[C@H](NC(=O)[C@@H](CCCNC(=N)N)NC(=O)[C@@H]1CCCCN1C(=O)[C@H](CCCNC(=N)N)NC(=O)[C@H](CCC(N)=O)NC(=O)[C@@H](CCCNC(=N)N)NC(=O)C(C)(C)C(=O)NCCc1cnc[nH]1)C(=O)NC(C)(C)C(=O)N[C@@H](Cc1c[nH]cn1)C(=O)N[C@@H](CC1CCNCC1)C(=O)NCC(=O)N1[C@H](C(=O)N[C@@H](Cc2ccc(Br)cc2)C(=O)N2CCC[C@H]2C(=O)N[C@H](Cc2ccc(-c3ccccc3)cc2)C(=O)O)C[C@@H]2CCCC[C@@H]21` [Example 30] ({Malonyl(2,2-Me2,histaminyl)}-[dR]QR[Pip][dR]L[Aib]H[Ala(piperidin-4-yl)]G[Oic][Phe(4-Br)]P[dBip]-OH), on human Apelin receptor [1], the pEC50 is below 5.00. At human Apelin receptor [2], this molecule had an Emax of 106% and a negative-log EC50 (pEC50) of 8.30.
For `CC(C)C[C@H](NC(=O)[C@@H](CCCNC(=N)N)NC(=O)[C@@H]1CCCCN1C(=O)[C@H](CCCCNC(=N)N)NC(=O)[C@H](CCC(N)=O)NC(=O)[C@@H](CCCNC(=N)N)NC(=O)C(C)(C)C(=O)NCCc1cnc[nH]1)C(=O)NC(C)(C)C(=O)N[C@@H](Cc1c[nH]cn1)C(=O)N[C@@H](CC1CCNCC1)C(=O)N[C@@H](C)C(=O)N1[C@H](C(=O)N[C@@H](Cc2ccc(Br)cc2)C(=O)N2CCC[C@H]2C(=O)N[C@H](Cc2ccc(-c3ccccc3)cc2)C(=O)O)C[C@@H]2CCCC[C@@H]21` [Example 29] ({Malonyl(2,2-Me2,histaminyl)}-[dR]Q[hArg][Pip][dR]L[Aib]H[Ala(piperidin-4-yl)]A[Oic][Phe(4-Br)]P[dBip]-OH) the same measures were below 5.00, 69.7% and 8.60.
Take `CCCC[C@H](NC(=O)[C@@H]1C[C@@H]2CCCC[C@@H]2N1C(=O)CNC(=O)[C@H](CC1CCNCC1)NC(=O)[C@H](Cc1ccc(Br)cc1)NC(=O)C(C)(C)NC(=O)[C@H](CC(C)C)NC(=O)[C@@H](CCCNC(=N)N)NC(=O)[C@@H]1CCCN1C(=O)[C@H](CCCCNC(=N)N)NC(=O)[C@H](CCC(N)=O)NC(=O)[C@@H](CCCNC(=N)N)NC(=O)C(C)(C)C(=O)NCCc1cnc[nH]1)C(=O)N1CCC[C@H]1C(=O)N[C@H](Cc1ccc(-c2ccccc2)cc1)C(=O)O` [Example 33] ({Malonyl(2,2-Me2,histaminyl)}-[dR]Q[hArg]P[dR]L[Aib][Phe(4-Br)][Ala(piperidin-4-yl)]G[Oic][Nle]P[dBip]-OH): the negative-log EC50 (pEC50) on human Apelin receptor [1] is below 5.00. At human Apelin receptor [2], this molecule had an Emax of 63% and a pEC50 of 7.60.
For `CC(C)C[C@H](NC(=O)[C@@H](CCCNC(=N)N)NC(=O)[C@@H]1CCCN1C(=O)[C@H](CCCCNC(=N)N)NC(=O)[C@H](CCC(N)=O)NC(=O)[C@@H](CCCNC(=N)N)NC(=O)C(C)(C)C(=O)NCCCc1cnc[nH]1)C(=O)NC(C)(C)C(=O)N[C@@H](Cc1c[nH]cn1)C(=O)N[C@@H](CC1CCNCC1)C(=O)NCC(=O)N1[C@H](C(=O)N[C@@H](Cc2ccc(Br)cc2)C(=O)N2CCC[C@H]2C(=O)N[C@H](Cc2ccc(-c3ccccc3)cc2)C(=O)O)C[C@@H]2CCCC[C@@H]21` [Example 36] (X4-[dR]Q[hArg]P[dR]L[Aib]H[Ala(piperidin-4-yl)]G[Oic][Phe(4-Br)]P[dBip]-OH) the same measures were below 4.00, 55.7% and 8.30.
